Experimental data as given in PubChem BioAssay AID1918946 (Molecular Pharmacology Branch, DTP, NCI, 2023).

Tested on: 885512-296-R-J2-PDC complex spheroid viability
Experiment: Anticancer human tumor 885512-296-R-J2-PDC patient-derived breast carcinoma cell line growth inhibition
Details: for IC50: curve of first compound; for viability, T/C: stronger effect = lower value
Summary of the method: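 Drug combinations with the LSD1 inhibitor iadademstat tested on tumor cells co-cultured as spheroids with endothelial cells and mesenchymal stem cells. Concentrations descended in half-log increments from clinical Cmax or 10 microM.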

[1] = second compound 0.1 µM, first compound 0.00949 µM
[2] = second compound 0.1 µM, first compound 0.03 µM
[3] = second compound 0.1 µM, first compound 0.0949 µM
[4] = second compound 0.1 µM, first compound 0.3 µM
[5] = second compound 0.316 µM, first compound 0.00949 µM
[6] = second compound 0.316 µM, first compound 0.03 µM
[7] = second compound 0.316 µM, first compound 0.0949 µM
[8] = second compound 0.316 µM, first compound 0.3 µM
[9] = second compound 1 µM, first compound 0.00949 µM
[10] = second compound 1 µM, first compound 0.03 µM
[11] = second compound 1 µM, first compound 0.0949 µM
[12] = second compound 1 µM, first compound 0.3 µM
[13] = second compound 3.16 µM, first compound 0.00949 µM
[14] = second compound 3.16 µM, first compound 0.03 µM
[15] = second compound 3.16 µM, first compound 0.0949 µM
[16] = second compound 3.16 µM, first compound 0.3 µM
[17] = second compound 10 µM, first compound 0.00949 µM
[18] = second compound 10 µM, first compound 0.03 µM
[19] = second compound 10 µM, first compound 0.0949 µM
[20] = second compound 10 µM, first compound 0.3 µM
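Note: spheroids exposed to agents for 7 days before viability read.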

| SMILES | IC50 (second compound 0.1 µM) [nM] | IC50 (second compound 0.316 µM) [nM] | IC50 (second compound 1 µM) [nM] | IC50 (second compound 3.16 µM) [nM] | IC50 (second compound 10 µM) [nM] | viability, T/C [1] [%] | viability, T/C [2] [%] | viability, T/C [3] [%] | viability, T/C [4] [%] | viability, T/C [5] [%] | viability, T/C [6] [%] | viability, T/C [7] [%] | viability, T/C [8] [%] | viability, T/C [9] [%] | viability, T/C [10] [%] | viability, T/C [11] [%] | viability, T/C [12] [%] | viability, T/C [13] [%] | viability, T/C [14] [%] | viability, T/C [15] [%] | other results |
| --- | --- | --- | --- | --- | --- | --- | --- | --- | --- | --- | --- | --- | --- | --- | --- | --- | --- | --- | --- | --- | --- |
| CCN(c1cc(-c2ccc(CN3CCOCC3)cc2)cc(C(=O)NCc2c(C)cc(C)[nH]c2=O)c1C)C1CCOCC1 + NC1CCC(NC2CC2c2ccccc2)CC1 | 1820 | 1740 | 2250 | 2080 | > 3000 | 118 | 135 | 104 | 117 | 131 | 114 | 127 | 94.5 | 135 | 107 | 122 | 87.2 | 141 | 125 | 106 | viability, T/C (second compound 0.1 µM, first compound 0.949 µM): 98.6%; viability, T/C (second compound 0.1 µM, first compound 3 µM): 12.3%; viability, T/C (second compound 0.316 µM, first compound 0.949 µM): 79.1%; viability, T/C (second compound 0.316 µM, first compound 3 µM): 26.1%; viability, T/C (second compound 1 µM, first compound 0.949 µM): 80.2%; viability, T/C (second compound 1 µM, first compound 3 µM): 39.9%; viability, T/C [16]: 102%; viability, T/C (second compound 3.16 µM, first compound 0.949 µM): 78.3%; viability, T/C (second compound 3.16 µM, first compound 3 µM): 35.8%; viability, T/C [17]: 110%; viability, T/C [18]: 95.4%; viability, T/C [19]: 85.8%; viability, T/C [20]: 82.7%; viability, T/C (second compound 10 µM, first compound 0.949 µM): 78.5%; viability, T/C (second compound 10 µM, first compound 3 µM): 55% |
| Nc1ncn(C2CC(O)C(CO)S2)c(=O)n1 (stereo not given) + NC1CCC(NC2CC2c2ccccc2)CC1 | 5.37 | 4.73 | 4.84 | 4.82 | 2.75 | 32.5 | 15.5 | 12.6 | 11.3 | 36.4 | 20.6 | 12.4 | 10 | 32.8 | 17.3 | 11.5 | 6.83 | 33.3 | 18.8 | 12.4 | viability, T/C (second compound 0.1 µM, first compound 0.000949 µM): 81.1%; viability, T/C (second compound 0.1 µM, first compound 0.003 µM): 67.9%; viability, T/C (second compound 0.316 µM, first compound 0.000949 µM): 93%; viability, T/C (second compound 0.316 µM, first compound 0.003 µM): 59%; viability, T/C (second compound 1 µM, first compound 0.000949 µM): 99.2%; viability, T/C (second compound 1 µM, first compound 0.003 µM): 62.2%; viability, T/C (second compound 3.16 µM, first compound 0.000949 µM): 83%; viability, T/C (second compound 3.16 µM, first compound 0.003 µM): 61.6%; viability, T/C [16]: 8.51%; viability, T/C (second compound 10 µM, first compound 0.000949 µM): 79.8%; viability, T/C (second compound 10 µM, first compound 0.003 µM): 47.5%; viability, T/C [17]: 23.8%; viability, T/C [18]: 11.2%; viability, T/C [19]: 9.62%; viability, T/C [20]: 6.05% |
